Measurements: ChEMBL document CHEMBL4359925, “Rational discovery of a highly novel and selective mTOR inhibitor” (Bioorg Med Chem Lett, 2019)

Experiments:
[1] = target: Phosphatidylinositol 4,5-bisphosphate 3-kinase catalytic subunit alpha isoform (Homo sapiens, UniProt P42336); experiment: Inhibition of PI3K alpha (unknown origin)
[2] = target: Serine/threonine-protein kinase mTOR (Homo sapiens, UniProt P42345); experiment: Inhibition of human mTOR measured after 30 mins in presence of ATP by Lanthascreen TR-FRET assay

Sequence of Phosphatidylinositol 4,5-bisphosphate 3-kinase catalytic subunit alpha isoform (P42336 whole entry, canonical isoform): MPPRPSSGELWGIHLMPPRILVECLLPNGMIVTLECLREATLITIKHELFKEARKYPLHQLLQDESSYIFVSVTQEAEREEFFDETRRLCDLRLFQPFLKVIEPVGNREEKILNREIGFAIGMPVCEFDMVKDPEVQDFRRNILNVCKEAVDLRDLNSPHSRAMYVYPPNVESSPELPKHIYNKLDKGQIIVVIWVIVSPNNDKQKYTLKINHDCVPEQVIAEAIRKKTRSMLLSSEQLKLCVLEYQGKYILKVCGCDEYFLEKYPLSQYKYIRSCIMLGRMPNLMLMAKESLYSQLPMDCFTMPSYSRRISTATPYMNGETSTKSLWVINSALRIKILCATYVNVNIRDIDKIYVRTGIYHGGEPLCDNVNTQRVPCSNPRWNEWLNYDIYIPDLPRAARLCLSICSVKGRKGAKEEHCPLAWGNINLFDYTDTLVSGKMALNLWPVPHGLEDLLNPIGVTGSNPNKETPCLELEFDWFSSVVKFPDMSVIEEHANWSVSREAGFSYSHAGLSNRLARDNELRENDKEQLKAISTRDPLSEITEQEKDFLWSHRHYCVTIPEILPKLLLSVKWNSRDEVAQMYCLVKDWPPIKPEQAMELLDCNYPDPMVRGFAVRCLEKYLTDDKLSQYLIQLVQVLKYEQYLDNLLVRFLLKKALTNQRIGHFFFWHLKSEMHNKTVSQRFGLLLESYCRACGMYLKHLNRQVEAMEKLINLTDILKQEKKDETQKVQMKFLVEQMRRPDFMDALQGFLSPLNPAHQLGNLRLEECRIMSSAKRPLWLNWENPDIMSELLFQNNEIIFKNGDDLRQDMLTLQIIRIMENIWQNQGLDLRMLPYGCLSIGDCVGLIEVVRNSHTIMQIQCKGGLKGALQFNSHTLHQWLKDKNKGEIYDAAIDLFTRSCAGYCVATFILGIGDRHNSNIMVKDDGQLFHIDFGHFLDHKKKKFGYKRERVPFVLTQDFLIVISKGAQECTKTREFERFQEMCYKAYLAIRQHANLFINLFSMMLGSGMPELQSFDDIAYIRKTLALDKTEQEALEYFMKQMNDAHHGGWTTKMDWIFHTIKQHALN

IC50 [1]: 5.01 µM | IC50 [2]: 5.01 µM
Structure (SMILES): CNC(=O)Nc1ccc(-c2nc(C)c3nc4n(c3n2)CCOC4)cc1
